From patent publication US20160045463A1, “USE OF METALLOPROTEASE INHIBITORS IN THE TREATMENT OF POLYCYSTIC LIVER DISEASES” (UNIVERSIDAD DE SALAMANCA, priority 2012, published 2016)

Key:
[1] = test system: PCK rats; conditions: cited from earlier work
[2] = test system: normal human cholangiocytes; test: Metalloproteolytic activity of culture supernatants, ES001 fluorogenic peptide cleavage; format: cell-based
Procedure: (§1) Metalloproteolytic or metalloprotease activity was measured in supernatants of cultures of normal human cholangiocytes and polycystic human cholangiocytes by an assay based on the cleavage of the ES001 fluorogenic synthetic peptide (R&D Systems Minneapolis, Minn., USA) that emits fluorescence proportional to metalloproteolytic activity. The substrate Mca-Pro-Leu-Gly-Leu-Dpa-Ala-Arg-NH2 [Mca: (7-Methoxycoumarin-4-yl)acetyl, Dpa: N-3-(2,4-Dinitrophenyl)-L-2,3-diaminopropionyl] (Knight C G, et al. FEBS Letters 1992; 296:263) is lysed between glycine and leucine by the action of the MMPs, especially MMP-1 (collagenase 1), MMP-2 (gelatinase A), MMP-7 (matrilysin), MMP-8 (collagenase 2), MMP-9 (gelatinase B), MMP-12 (macrophage elastase), MMP-13 (collagenase 3), MMP-14 (MT1-MMP), MMP-15 (MT2-MMP) and MMP-16 (MT3-MMP).
(§2) The basal metalloproteolytic activity of normal human cholangiocyte and polycystic human cholangiocytes cultures was determined by trypsinising the contents of 250 ml flasks and counting the number of cells in an inverted optical microscope using a Neubauer camera and a ½ dilution of the cell solution with trypan blue (Sigma). Next, 300,000 cells were seeded in each well of a 6-well plate and incubated with enriched DMEM/F-12 medium for 24 hours. After this time, the cells were washed with PBS and the culture medium changed for 2 ml of quiescent medium (DMEM/F-12, 1% FBS and 1% P/S) and incubated for 6 hours at 37° C./5% CO2. The supernatant was collected from each well and centrifuged at 4° C. for 10 minutes at 1,500 rpm to remove the dead cells present in the supernatant. The supernatant was concentrated 50 times using a 15 kDa (Millipore) Amicon Ultra concentrator. Next the concentrated supernatant was incubated for 2 hours at 37° C. with the ES001 fluorogenic peptide at a final concentration of 10 μM. Also, GM6001 (a global MMP inhibitor) and aprotinin (a global inhibitor of serine proteases) (both from Sigma-Aldrich) were used as controls of the specificity of the analysis of MMP activity in the assay. Recombinant MMP-10 (kindly provided by Dr. José Antonio Rodriguez Garcia, Laboratorio de Ateroesclerosis e Inflamación del CIMA, Universidad de Navarra) was used as a positive control and DMEM/F-12 medium without serum was used as the negative control. The fluorescence determination was kinetically measured in a Spectra MAX GeminiXS (Molecular Devices Sunnyvale, Calif., USA) spectrophotometer at excitation-emission wavelengths of 320-405 nm. The fluorescence intensity emitted by the culture medium was extracted from the metalloproteolytic activity values. The metalloproteolytic activity was calculated from the tangent to the curve of the fluorescence values using at least six different points over time for each type of cell and condition.
(§3) To analyse the effect of various stimuli on the metalloproteolytic activity of normal and polycystic human cholangiocytes cultures, a protocol similar to that described before in Example 2 was followed, but in this case the incubation of the cells was with quiescent medium (i.e. DMEM/F12, […]) in the presence of the corresponding stimulus (Table 3). Next, the same procedure as described for the analysis of basal metalloproteolytic activity was followed as described in Example 2.
(§4) Taking into account that: i) basal activity of polycystic human cholangiocytes in culture is greater than that of normal human cholangiocytes and ii) that IL-6 and IL-8 increased the metalloproteolytic activity of normal and polycystic human cholangiocytes, the role of these two cytokines on metalloproteolytic hyperactivity of polycystic human cholangiocytes using antibodies against the receptors of IL-6 (IL6R) and/or IL-8 (CXCR1) was investigated. […]

[3] = test system: polycystic human cholangiocytes; test: as above; format: cell-based
Procedure: as §1, §2, §3, §4

[4] = molecular target: recombinant MMP-10 (Homo sapiens, UniProt P09238); test: ES001 fluorogenic peptide assay with recombinant MMP-10 as positive control; format: biochemical; conditions: FIG. 2
Procedure: Metalloproteolytic or metalloprotease activity was measured in supernatants of cultures of normal human cholangiocytes and polycystic human cholangiocytes by an assay based on the cleavage of the ES001 fluorogenic synthetic peptide (R&D Systems Minneapolis, Minn., USA) that emits fluorescence proportional to metalloproteolytic activity. The substrate Mca-Pro-Leu-Gly-Leu-Dpa-Ala-Arg-NH2 [Mca: (7-Methoxycoumarin-4-yl)acetyl, Dpa: N-3-(2,4-Dinitrophenyl)-L-2,3-diaminopropionyl] […]
The basal metalloproteolytic activity of normal human cholangiocyte and polycystic human cholangiocytes cultures was determined by trypsinising the contents of 250 ml flasks and counting the number of cells in an inverted optical microscope using a Neubauer camera and a ½ dilution of the cell solution with trypan blue (Sigma). […] The fluorescence determination was kinetically measured in a Spectra MAX GeminiXS (Molecular Devices Sunnyvale, Calif., USA) spectrophotometer at excitation-emission wavelengths of 320-405 nm. The fluorescence intensity emitted by the culture medium was extracted from the metalloproteolytic activity values. The metalloproteolytic activity was calculated from the tangent to the curve of the fluorescence values using at least six different points over time for each type of cell and condition.

[5] = in vivo; cited from earlier work
[6] = test system: polycystic livers; conditions: ADPKD patients subjected to kidney transplant with polycystic livers; cited from earlier work
[7] = test system: normal human cholangiocytes; test: MMP mRNA expression by quantitative PCR in the presence of IL-6, IL-8 or 17β-estradiol; format: cell-based
Procedure: (§5) To determine if the metalloproteolytic hyperactivity of polycystic human cholangiocytes is associated with changes in the pattern of expression of MMPs and their natural inhibitors, TIMPs, at the level of mRNA, this was analysed by quantitative PCR (i.e. qPCR) using the cDNA previously obtained as explained in Example 1, the gene expression of a total of 22 genes, including those containing the members of the metalloprotease family: MMP-1, MMP-2, MMP-3, MMP-7, MMP-8, MMP-9, MMP-10, MMP-11, MMP-13, MMP-14, MMP-15, MMP-16, MMP-17, MMP-18, MMP-24, MMP-25, MMP-26, MMP-27 and their natural inhibitors: TIMP-1, TIMP-2, TIMP-3, TIMP-4. Briefly, 4 μl of the cDNA were taken and 1.8 μl of a 10 μM solution of each primer (final concentration 0.9 μM) and 10 μl of FastSYBR® Green (Applied Biosystems) were added, adding sterile water (Braun) to reach a final volume of 20 μl. The amplification reactions were performed in a StepOne Plus (Applied Biosystems) thermo cycler following the standard protocol conditions for FastSYBR Green®.
(§6) The relative estimate of the mRNA levels of the genes of Table 2 were calculated from the PCR progression curve (fluorescence vs. cycle), where the cycle threshold or Ct was determined from when the fluorescence signal begins to increase exponentially. Thus to calculate the difference of relative expression of the normal and polycystic human cholangiocytes, the data obtained were analysed following the modified method of Livak and Schmittgen (Livak K J, et al. Methods 2001; 25:402), according to the following equation:
(§7) Relative values=1.8^(polycystic or normal cholangiocyte GAPDH−polycystic or normal cholangiocyte GEN)
(§8) Where the superscripts “GAPDH polycystic or normal cholangiocytes” and “Gene polycystic or normal cholangiocytes” correspond to the Ct for GAPDH and for each studied gene. The value of 1.8 (in place of 2) was used because it is assumed that the real efficiency of each amplification cycle is around 80% instead of 100%.
as §3
(§9) Taking into account the increase in metalloproteolytic activity induced by interleukins 6 and 8 and also the oestrogen 17β-estradiol in human cholangiocytes in culture, this was further investigated to determine if the increase in activity was correlated with an increase in gene expression at the level of mRNA of the various MMPs.

[8] = test system: polycystic human cholangiocytes; test: as above; format: cell-based
Procedure: as §5, §6, §7, §8, §3, §9

Sequence of recombinant MMP-10 (P09238 99-476, species assumed): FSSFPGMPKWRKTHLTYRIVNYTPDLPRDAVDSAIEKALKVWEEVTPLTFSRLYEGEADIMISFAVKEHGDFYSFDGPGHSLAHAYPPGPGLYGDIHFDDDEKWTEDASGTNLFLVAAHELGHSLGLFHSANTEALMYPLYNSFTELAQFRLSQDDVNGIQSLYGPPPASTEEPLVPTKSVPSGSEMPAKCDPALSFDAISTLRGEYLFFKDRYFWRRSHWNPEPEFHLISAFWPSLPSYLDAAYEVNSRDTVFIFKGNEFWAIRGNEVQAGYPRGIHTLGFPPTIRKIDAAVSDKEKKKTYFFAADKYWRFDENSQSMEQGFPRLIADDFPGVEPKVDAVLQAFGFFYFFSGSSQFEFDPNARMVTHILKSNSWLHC

## C[C@@H](O)[C@@H]1NC(=O)[C@H](CCCCN)NC(=O)[C@@H](Cc2c[nH]c3ccccc23)NC(=O)[C@H](Cc2ccccc2)NC(=O)[C@@H](NC(=O)[C@H](N)Cc2ccccc2)CSSC[C@@H](C(=O)N[C@H](CO)[C@@H](C)O)NC1=O [octreotide]
[1]
  liver cystogenesis: inhibited

## CNC(=O)[C@H](Cc1c[nH]c2ccccc12)NC(=O)[C@@H](CC(=O)NO)CC(C)C [GM6001]
[2]; normal human cholangiocytes, presence of MMP inhibitor GM6001, p<0.001, FIG. 2
  metalloproteolytic activity: inhibited
[3]; polycystic human cholangiocytes, presence of MMP inhibitor GM6001, p<0.001, FIG. 2
  metalloproteolytic activity: inhibited
[4]
  metalloproteolytic activity of the assay with recombinant MMP-10: inhibited

## O=C(C[C@H](CSc1ccccc1)C(=O)O)c1ccc(-c2ccc(Cl)cc2)cc1 [BAY-12-9566]
[5]
  half-life in plasma: 90 to 100 h

## C=CC[C@@H]1/C=C(\C)C[C@H](C)C[C@H](OC)[C@H]2O[C@@](O)(C(=O)C(=O)N3CCCC[C@H]3C(=O)O[C@H](/C(C)=C/[C@@H]3CC[C@@H](O)[C@H](OC)C3)[C@H](C)[C@@H](O)CC1=O)[C@H](C)C[C@@H]2OC [tacrolimus]
[6]
  volume of the liver: increased the volume of the liver

## IL-8: cytokine interleukin 8, present in the cystic fluid
[2]; normal cholangiocytes vs basal, Table 3 final concentration: IL-6, IL-8 50 ng/ml, 17β-estradiol 1 nM/ml, VEGF, EGF, ENA-78, GRO-α 10 ng/ml, HGF 20 ng/ml, FIG. 9
  metalloproteolytic activity in presence of stimulus: increase
[3]; polycystic cholangiocytes vs basal, Table 3 final concentration: IL-6, IL-8 50 ng/ml, 17β-estradiol 1 nM/ml, VEGF, EGF, ENA-78, GRO-α 10 ng/ml, HGF 20 ng/ml, FIG. 9
  metalloproteolytic activity in presence of stimulus: increase
[7]
  expression of the other metalloproteinases 1, 8, 9, 14, 16, 18, 24 and 26: did not show changes
[7]; FIG. 10
  expression of MMP-2 (mRNA): none of these modules induced changes
[7]; FIG. 11
  expression of MMP-3 (mRNA): unchanged
[7]; FIG. 12
  expression of MMP-7 (mRNA): None of the 3 molecules caused changes
[7]; FIG. 13
  expression of MMP-10 (mRNA): increased
[7]; FIG. 14
  expression of MMP-11 (mRNA): increased
[7]; FIG. 15
  expression of MMP-13 (mRNA): increased
[7]; FIG. 16
  expression of MMP-15 (mRNA): did not change
[7]; FIG. 17
  expression of MMP-17 (mRNA): did not change
[7]; FIG. 18
  expression of MMP-27 (mRNA): did not change
[8]
  expression of the other metalloproteinases 1, 8, 9, 14, 16, 18, 24 and 26: did not show changes
[8]; FIG. 10
  expression of MMP-2 (mRNA): not changed
[8]; FIG. 11
  expression of MMP-3 (mRNA): unchanged
[8]; FIG. 12
  expression of MMP-7 (mRNA): unchanged
[8]; FIG. 13
  expression of MMP-10 (mRNA): none of the 3 molecules caused changes
[8]; FIG. 14
  expression of MMP-11 (mRNA): increased
[8]; FIG. 15
  expression of MMP-13 (mRNA): did not change
[8]; FIG. 16
  expression of MMP-15 (mRNA): not altered
[8]; FIG. 17
  expression of MMP-17 (mRNA): increased
[8]; FIG. 18
  expression of MMP-27 (mRNA): unchanged
